From patent US20050020646A1, “Treatment of BPH” (Pfizer Inc., priority 2003, published 2005)

Legend:
[1] = tested on: rat spinal cord injury model of overactive bladder; details: cited from earlier work
[2] = tested on: human bladder; details: human volunteers, intravesical administration; cited from earlier work
[3] = tested on: bladder function of wild type (WT) and EP1 knockout (EP1KO) mice; experiment: Cystometry in conscious mice under intravesical instillation of PGE2; type: in vivo, mouse; details: intravesical instillation of PGE2 (20 μM)
Procedure: Animals: Age-matched female EP1 knockout (EP1KO) mice (DBA/1LacJ background) (n=13) and DBA/1LacJ wild type (WT) controls (n=12) were used for the studies. The knockout mice originated from Groton Laboratories, Pfizer Research and Development, the wild type from the Jackson Laboratories, USA. Both strains were delivered through Charles River Laboratories, UK. After arrival, the mice were housed for 6 weeks under identical conditions under a 12 hours light/dark photocycle, food and water were provided ad libitum. The experimental protocol was approved by the Animals Ethics Committee, Lund University.
The knockout and WT mice were randomly divided into 3 groups each. One third received bladder outlet obstruction (BOO) as described below, one third received sham surgery. The remaining mice served as unoperated controls.
At day 5 after the obstruction a polyethylene catheter (PE, ID 0.38 mm, OD 0.61 mm) with a small cuff was inserted in the bladder dome and secured with a purse-string suture (7-0 silk). The obstructing ligature remained in place. The catheter was tunneled subcutaneously, led out on the back of the neck, and surgically secured. Control animals received the bladder catheter 2 days prior to cystometry.
Cystometry: Two days after insertion of the catheter (7 days after creation of the obstruction), the cystometric investigation was performed without any anesthesia or restraint. The mice were placed into a metabolic cage (Gazzada, Buguggiatade, Italy). The bladder catheter was connected to a pressure transducer, which in turn was connected to a Grass® 7E Polygraph recorder. The bladder was continuously filled with saline at room temperature by means of a microinjecton pump (CMA 100, Carnegie Medicine, Solna, Sweden), at a filling speed of 25 μl/min.
The amount of voided urine was measured by means of a fluid collector, connected to a force displacement transducer (FT 03 D; Grass instrument Co., MA, USA). After a stabilization period of 60-80 minutes, in which the bladder was continuously filled, reproducible voiding patterns were achieved and recorded over a period of 30 minutes. The following parameters were measured: Micturition interval (time between 2 voids), baseline pressure (lowest pressure between 2 voids), threshold pressure (pressure immediately before micturition was initiated), micturition pressure (maximum voiding pressure), and micturition volume. Residual urine was emptied manually 3 times at the end of the cystometry and measured. Bladder capacity was calculated as the amount of saline infused into the bladder between 2 voids, plus the average amount of residual urine.
The animals were continuously observed in order to distinguish between moving artifacts and non-voiding bladder contractions. The surface of the collecting-funnel under the grid of the metabolic cage was sprayed with a thin layer of silicone.
Drugs and solutions: PGE2 (Sigma Chemical Company, St. Louis, Mo., USA). PGE2 was dissolved in ethanol, and the stock solution was stored at a concentration of 10^−2 M at −70°. The final dilution of 20 μM was made in NaCl at the day of cystometry. (Normal Krebs solution was composed as following (mM): NaCl 119, KCl 4.6, CaCl2 1.5, MgCl2 1.2, NaHCO3 15, NaH2PO4 1.2, and glucose 11).
Data analysis: All values are reported as the mean±SEM. Statistical significance was determined by Student's t-test and Bonferroni correction as appropriate. P<0.05 was required for statistical significance.

[4] = tested on: rat bladder; details: rats, topical administration; cited from earlier work
[5] = tested on: bladder of normal rats; details: cited from earlier work

## Cc1cc(Cl)ccc1S(=O)(=O)NC[C@H]1C2CCC(CC2)[C@@H]1/C=C\CCCC(=O)O [ONO-8711]
[1]
  bladder overactivity: reduction in bladder overactivity

## CCCCC[C@H](O)/C=C/[C@H]1[C@H](O)CC(=O)[C@@H]1C/C=C\CCCC(=O)O [PGE2, prostaglandin E2]
[2]
  bladder capacity: decreased bladder capacity
  sensations of urgency: gave rise to sensations of urgency
[3]; EP1 KO control mice
  bladder capacity: no effect
  induction of non-voiding contractions: no induction of non-voiding contractions
  micturition interval: no effect
  micturition volume: no effect
[3]; WT control mice
  bladder capacity: decreased
  micturition interval: decreased
  micturition volume: decreased
  non-voiding contractions: Frequent non-voiding contractions of high amplitude occurred
[4]
  bladder activity and reflex micturition: bladder hyperactivity and stimulation of reflex micturition

## CC(=O)NNC(=O)N1Cc2ccccc2Oc2ccc(Cl)cc21 [SC-19220]
[5]
  bladder capacity: increased bladder capacity
